# Test results taken from ChEMBL document CHEMBL1123242, “Derivatives of 1-(1,3-benzodioxol-5-yl)-2-butanamine: representatives of a novel therapeutic class” (1986).
# What was measured:
# Type in all cases: functional
# Rattus norvegicus [1] = experiment: Compound was tested for hallucinogenic activity in rats at the dose 0.17(mg/kg); Number of rats selecting the LSD lever/ number of rats responding (1/8)
# Rattus norvegicus [2] = experiment: Compound was tested for hallucinogenic activity in rats at the dose 0.34(mg/kg); Number of rats selecting the LSD lever/ number of rats responding (3/8
# Rattus norvegicus [3] = experiment: Compound was tested for hallucinogenic activity in rats at 0.69 dose(mg/kg); Number of rats selecting the LSD lever/ number of rats responding (2/9)
# Rattus norvegicus [4] = experiment: Compound was tested for hallucinogenic activity in rats at 2.76 dose (mg/kg); Number of rats selecting the LSD lever/ number of rats responding (3/9)
# Rattus norvegicus [5] = experiment: Compound was tested for hallucinogenic activity in rats at 2.41 dose (mg/kg); Number of rats selecting the LSD lever/ number of rats responding (3/8)
# Rattus norvegicus [6] = experiment: Compound was tested for hallucinogenic activity in rats at 3.44 dose (mg/kg); Number of rats selecting the LSD lever/ number of rats responding (4/8)
# Rattus norvegicus [7] = experiment: Compound was tested for hallucinogenic activity in rats at dose 1.38(mg/kg); Number of rats selecting the LSD lever/ number of rats responding (2/8)
# Rattus norvegicus [8] = experiment: Compound was tested for hallucinogenic activity in rats at 2.07dose (mg/kg); Number of rats selecting the LSD lever/ number of rats responding (3/8)
# Rattus norvegicus [9] = experiment: Compound was tested for hallucinogenic activity in rats at 1.72 dose(mg/kg); Number of rats selecting the LSD lever/ number of rats responding (4/8)
# Rattus norvegicus [10] = experiment: Compound was tested for hallucinogenic activity in rats at 4.14 dose (mg/kg); 2/4, highest dose tested
# Rattus norvegicus [11] = experiment: Compound was tested for hallucinogenic activity in rats at 15 dose(mg/kg); 0/0, highest dose tested
# Rattus norvegicus [12] = experiment: Compound was tested for hallucinogenic activity in rats at 2.07 dose(mg/kg); 0/0, highest dose tested
# Rattus norvegicus [13] = experiment: Compound was tested for hallucinogenic activity in rats at 1.95 dose(mg/kg); Number of rats selecting the LSD lever/ number of rats responding (1/7)
# Rattus norvegicus [14] = experiment: Compound was tested for hallucinogenic activity in rats at the dose 0.37(mg/kg); Number of rats selecting the LSD lever/ number of rats responding (0/8)
# Rattus norvegicus [15] = experiment: Compound was tested for hallucinogenic activity in rats at the dose 0.73(mg/kg); Number of rats selecting the LSD lever/ number of rats responding (0/8)
# Rattus norvegicus [16] = experiment: Compound was tested for hallucinogenic activity in rats at 1.84 dose(mg/kg); 2/4, highest dose tested
# Rattus norvegicus [17] = experiment: Compound was tested for hallucinogenic activity in rats at the dose 0.69(mg/kg); Number of rats selecting the LSD lever/ number of rats responding (0/8)
# Rattus norvegicus [18] = experiment: Compound was tested for hallucinogenic activity in rats at 1.38 dose(mg/kg); Number of rats selecting the LSD lever/ number of rats responding (3/8)
# Rattus norvegicus [19] = experiment: Compound was tested for hallucinogenic activity in rats at the dose 0.34 (mg/kg); Number of rats selecting the LSD lever/ number of rats responding (0/8)
# Rattus norvegicus [20] = experiment: Compound was tested for hallucinogenic activity in rats at 1.84 dose(mg/kg); Number of rats selecting the LSD lever/ number of rats responding (3/8)
# Rattus norvegicus [21] = experiment: Compound was tested for hallucinogenic activity in rats at 1.38 dose(mg/kg); Number of rats selecting the LSD lever/ number of rats responding (2/8)
# Rattus norvegicus [22] = experiment: Compound was tested for hallucinogenic activity in rats at the dose 0.34 (mg/kg); Number of rats selecting the LSD lever/ number of rats responding (2/8)
# Rattus norvegicus [23] = experiment: Compound was tested for hallucinogenic activity in rats at 2.19 dose(mg/kg); 0/1, highest dose tested
# Rattus norvegicus [24] = experiment: Compound was tested for hallucinogenic activity in rats at 0.32(mg/kg)
# Rattus norvegicus [25] = experiment: Compound was tested for hallucinogenic activity in rats at 1.29 dose(mg/kg); Number of rats selecting the LSD lever/ number of rats responding (5/8)
# Rattus norvegicus [26] = experiment: Compound was tested for hallucinogenic activity in rats at 0.63 dose(mg/kg); Number of rats selecting the LSD lever/ number of rats responding (2/8)
# Rattus norvegicus [27] = experiment: Compound was tested for hallucinogenic activity in rats at the dose 0 (mg/kg)
# Rattus norvegicus [28] = experiment: Compound was tested for hallucinogenic activity in rats at 1.72 dose(mg/kg); Number of rats selecting the LSD lever/ number of rats responding (7/8)
# Rattus norvegicus [29] = experiment: Compound was tested for hallucinogenic activity in rats at 0.32dose (mg/kg); Number of rats selecting the LSD lever/ number of rats responding (0/8)
# Rattus norvegicus [30] = experiment: Compound was tested for hallucinogenic activity in rats at the dose of 0.04(mg/kg); Number of rats selecting the LSDlever/ number of rats responding (6/8)
# Rattus norvegicus [31] = experiment: Compound was tested for hallucinogenic activity in rats at the dose 0.0025 (mg/kg)
# Rattus norvegicus [32] = experiment: Compound was tested for hallucinogenic activity in rats at the dose of 0.0025 (mg/kg); Number of rats selecting the LSDlever/ number of rats responding (0/8)
# Rattus norvegicus [33] = experiment: Compound was tested for hallucinogenic activity in rats at the dose of 0.005(mg/kg); Number of rats selecting the LSDlever/ number of rats responding (4/8)
# Rattus norvegicus [34] = experiment: Compound was tested for hallucinogenic activity in rats at the dose of 0.02(mg/kg); Number of rats selecting the LSDlever/ number of rats responding (5/8)
# Rattus norvegicus [35] = experiment: Compound was tested for hallucinogenic activity in rats at the dose of 0.08(mg/kg); Number of rats selecting the LSDlever/ number of rats responding (8/8)
# Rattus norvegicus [36] = experiment: Compound was tested for hallucinogenic activity in rats at the dose of 0.01(mg/kg); Number of rats selecting the LSDlever/ number of rats responding (4/8)
structure (smiles),measurement,setting,value
CN[C@H](C)Cc1ccc2c(c1)OCO2,Result,Rattus norvegicus [1],1
same,Result,Rattus norvegicus [2],3
same,Result,Rattus norvegicus [3],2
same,Result,Rattus norvegicus [4],3
same,Result,Rattus norvegicus [5],3
same,Result,Rattus norvegicus [6],4
same,Result,Rattus norvegicus [7],2
same,Result,Rattus norvegicus [8],3
same,Result,Rattus norvegicus [9],4
same,Result,Rattus norvegicus [10],2
CC[C@@H](Cc1ccc2c(c1)OCO2)NC,Result,Rattus norvegicus [11],0
CCC(Cc1ccc2c(c1)OCO2)NC (racemic),Result,Rattus norvegicus [12],0
same,Result,Rattus norvegicus [13],1
same,Result,Rattus norvegicus [14],0
same,Result,Rattus norvegicus [15],0
CCC(N)Cc1ccc2c(c1)OCO2 (racemic),Result,Rattus norvegicus [16],2
same,Result,Rattus norvegicus [17],0
same,Result,Rattus norvegicus [18],3
same,Result,Rattus norvegicus [19],0
CNC(C)Cc1ccc2c(c1)OCO2 (racemic) [MIDOMAFETAMINE],Result,Rattus norvegicus [20],3
same,Result,Rattus norvegicus [17],0
same,Result,Rattus norvegicus [21],2
same,Result,Rattus norvegicus [22],2
same,Result,Rattus norvegicus [23],0
CC(N)Cc1ccc2c(c1)OCO2 (racemic) [TENAMFETAMINE],ED50,Rattus norvegicus [24],0.97 mg/kg
same,Result,Rattus norvegicus [25],5
same,Result,Rattus norvegicus [26],2
same,ED50,Rattus norvegicus [27],4.52 µmol/kg
same,Result,Rattus norvegicus [28],7
same,Result,Rattus norvegicus [29],0
CCN(CC)C(=O)[C@@H]1C=C2c3cccc4[nH]cc(c34)C[C@H]2N(C)C1 [LYSERGIDE],Result,Rattus norvegicus [30],6
same,ED50,Rattus norvegicus [31],0.025 µmol/kg
same,Result,Rattus norvegicus [32],0
same,Result,Rattus norvegicus [33],4
same,Result,Rattus norvegicus [34],5
same,Result,Rattus norvegicus [35],8
same,Result,Rattus norvegicus [36],4
